“Also recorded” adds a separate entry of the source.
Test system: PV immunoreactive interneurons (PVI) in the PFC of NVHL rats
Experiment: PV interneuron counts (stereology) in PFC of NVHL rats
Format: in vivo, Sprague-Dawley rats
Details: adult (P61) NVHL rats; drinking water 900 mg/l, P5 to P50
Experimental: This example describes reversal of prepulse inhibition through treatment of ebselen. One of the most replicated findings in schizophrenia research is a reduction of markers associated with cortical inhibitory interneurons (Lewis et al., 2012). […] Whether parvalbumin (PV) positive interneurons in the PFC, including the dorsal prelimbic and anterior cingulate cortex (ACC), are altered in NVHL rats using unbiased stereological counting techniques was assessed. Between postnatal day (P) 21 and P61, the number of PV immunoreactive interneurons (PVI) increased in sham-operated rats, but not in NVHL rats as illustrated in FIGS. 7A and 1B.
Animals: Timed-pregnant Sprague-Dawley rats were obtained at gestational days 13-15 from Charles River (Wilmington, MA) and were individually housed with free access to food and water in a temperature- and humidity-controlled environment with a 12:12h light/dark cycle (lights on at 7:00 AM). When pups reached P5, half of the dams received NAC in their drinking water. Pups were left undisturbed until P7-9 when healthy offspring were randomly separated and received either NVHL or sham surgery. At P21, male and female pups were either transcardially perfused with 4% paraformaldehyde for immunocytochemistry or weaned and housed in groups of two to three, counterbalanced across lesion status. NAC treatment lasted throughout adolescence until P50. […]

## CC(=O)N[C@@H](CS)C(=O)O [NAC, N-acetyl cysteine]
  effect on PVI count reduction in PFC: prevented; also recorded: rescued
